US9393316B2, “Cancer targeting peptides for enhancing anti-cancer drug delivery and therapeutic efficiencies” (priority 2014, dated 2016)

Tests used:
HCT116 xenografts = assay: In vivo tumor homing, phage titer in tumor and organs; parameters: species or system mice; conditions: 2×10^11 pfu i.v., PBS perfusion; vs brain, lungs, heart
Description: Non-obese diabetic-severe combined immunodeficiency (NOD/SCID) mice were injected subcutaneously (s.c.) into the dorsolateral flank with 5×10^6 HCT116 cells. When the xenograft tumor size reached 300±50 mm^3, the mice were injected intravascularly (i.v.) with 2×10^11 pfu of the targeting phage or control phage M13KO7. Seven min after injection, the mice were sacrificed and perfused through the heart with 50 mL of PBS to wash unbound phages. After perfusion, xenograft tumor and mouse organs were taken out, washed three times with cold PBS, and cut into pans, with some of them homogenized. The phages bound to each tissue sample were recovered by log-phase Escherichia coli ER2738 culture and were titered on LB/IPTG/X-Gal agar plates. In peptide competitive inhibition experiments, 2×10^9 pfu of phage was co-injected with 100 μg of corresponding peptide or an unrelated control peptide.
To investigate the targeting ability of the selected phage clones in vivo, mice bearing HCT116 xenografts (300 mm^3) were injected with 2×10^11 pfu of either the selected phages or control phage through the tail vein. Phages were circulated and then were perfused with PBS buffer to wash out non-specific binders in circulation. After perfusion, we recovered and determined the […] of phage in tumor masses and normal organs.

HCT116 cells [1] = assay: ELISA screening of phage clones on HCT116 cells (cellular ELISA); assay type: binding, human; conditions: HCT116, cell line panel
Description: (§1) The selected phages were further identified by ELISA screening. 1×10^4 cells were seeded into each well of 96-well ELISA plates (Falcon, Calif., USA) overnight and were fixed with 2% paraformaldehyde or methanol/acetone (1:1) for 10 min at RT. The plates were washed twice with PBS and were blocked with 1% BSA in PBS (w/v) for 30 min at RT. Then individual phage clones were added and incubated for 1 hr at RT. Following washing three times with PBS, the plates were incubated with horseradish peroxidase (HRP)-conjugated mouse anti-M13 phage antibody (GE Healthcare) at 1:2000 dilution for 1 hr at RT. The plates were washed three times with PBS again, and were subsequently incubated with the peroxidase substrate o-phenylenediamine dihydrochloride (OPD; Sigma) plus H2O2. The reaction was terminated by 3 N HCl, and the absorbance was measured using microplate reader (Model 680, BioRad) at 490 nm.

B16-F10 = assay: Cellular ELISA of phage clones; assay type: binding, mouse
Description: as §1, with “nm. To evaluate the binding activities of the three selected phage clones to various human cancer cell lines, cellular ELISA was performed to detect sixteen types of human cancer cell lines, including A498, HTB-10, B16-F10, SKOV3, PC-3, U2OS, 1112SK, […], SAS, H460, MIA Paca-2, HCT116, HUVAC, CL1-5, Mahlavu, and MDA-MB-231.” for “nm.”

SW620 = assay: Flow cytometry surface binding of phage clones; parameters: species or system human
Description: (§2) Cells were grown to 70-80% confluence and were harvested with 10 mM EDTA in PBS. Peripheral blood mononuclear cells were prepared by using Ficoll-Paque Plus density gradient separation. After washing and suspending the cells with FACS buffer (PBS containing 1% fetal bovine serum), the cells were incubated for 1 hr at 4° C. with 5×10^9, 1×10^9 cfu individual phage clones or control phage, respectively. After washing twice with FACS buffer, cells were incubated with mouse anti-M13 monoclonal antibody (GE Healthcare) at 1:2000 dilution for 1 hr followed by 30 min with phycoerythrin (PE)-conjugated goat anti-mouse secondary antibody (Jackson ImmunoResearch) at 1:250 dilution at 4° C. The emission fluorescence signals were measured using FACSCantoll (Becton Dickinson) and were analyzed by FlowJo software.

COLO205 = assay: Flow cytometry surface binding of phage clones; parameters: species or system human
Description: as §2

LS174T = assay: Flow cytometry surface binding of phage clones; parameters: species or system human
Description: as §2

HT29 = assay: Flow cytometry surface binding of phage clones; parameters: species or system human
Description: as §2

HCT116 cells [2] = assay: Flow cytometry surface binding of phage clones; parameters: species or system human
Description: as §2

[3] = target: recombinant α-enolase protein (Homo sapiens, UniProt P06733); assay: Direct ELISA of HCT74 phage on recombinant α-enolase protein; assay type: binding; conditions: plate coated with 2 ug/mL α-enolase
Chain of recombinant α-enolase protein (P06733 whole entry): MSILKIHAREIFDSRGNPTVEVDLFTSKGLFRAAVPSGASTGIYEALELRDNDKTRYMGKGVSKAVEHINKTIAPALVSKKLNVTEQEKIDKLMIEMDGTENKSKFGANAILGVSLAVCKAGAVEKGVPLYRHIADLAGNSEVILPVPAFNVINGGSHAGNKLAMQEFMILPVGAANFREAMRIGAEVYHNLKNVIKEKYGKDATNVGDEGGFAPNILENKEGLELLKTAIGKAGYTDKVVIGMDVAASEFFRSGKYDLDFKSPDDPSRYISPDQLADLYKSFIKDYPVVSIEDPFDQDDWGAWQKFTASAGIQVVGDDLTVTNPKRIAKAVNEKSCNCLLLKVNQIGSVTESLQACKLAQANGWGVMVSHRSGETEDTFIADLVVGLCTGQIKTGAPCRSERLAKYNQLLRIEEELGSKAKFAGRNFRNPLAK
Description: (A) Schematic diagram of the experimental design. (B) The binding characteristics of biotinylated pHCT74 peptide to HCT116 cells were evaluated by flow cytometry. (C) Affinity cross-linking of biotinylated pHCT74 peptide to the surface proteins of HCT116 cells, cross-linked proteins were cleaved from streptavidin dynabeads using 2-mercaptoethanol. […] (D) The peptide sequence (SEQ ID NO: 22) of target bands were deduced by tandem mass spectrometry. (E) Stable knockdown of ENO1 gene by introducing specific shRNA (ENO1-A, B, C and D shRNA) into HCT116 cells through infection with viral vectors. (F) The binding activity of HCT74 phage was reduced after α-enolase gene knockdown (G) The binding activity of HCT74 phage was enhanced when α-enolase was overexpressed. (H) Binding affinity of the HCT74 phage to recombinant α-enolase protein. The 96-well plate was pre-coated with 2 ug/mL α-enolase protein and incubated with increasing concentrations of HCT74 phage and then with HRP conjugated anti-M13 antibody. Data are presented as mean±standard deviation.
To further confirm alpha-enolase was the target proteins of the pHCT74 peptide, correlation between the binding activity of HCT74 phage and ENO1 expression was examined. We established stable cell lines expressing shRNAs targeting ENO1 gene (FIG. 4E) and tested the binding activity of HCT74 phage by flow cytometry. […]

SAS = assay: Cellular ELISA of phage clones; assay type: binding, human
Description: as §1, with “nm. To evaluate the binding activities of the three selected phage clones to various human cancer cell lines, cellular ELISA was performed to detect sixteen types of human cancer cell lines, including A498, HTB-10, B16-F10, SKOV3, PC-3, U2OS, 1112SK, […], SAS, H460, MIA Paca-2, HCT116, HUVAC, CL1-5, Mahlavu, and MDA-MB-231.” for “nm.”

A498 = assay: Cellular ELISA of phage clones; assay type: binding, human
Description: as §1, with “nm. To evaluate the binding activities of the three selected phage clones to various human cancer cell lines, cellular ELISA was performed to detect sixteen types of human cancer cell lines, including A498, HTB-10, B16-F10, SKOV3, PC-3, U2OS, 1112SK, […], SAS, H460, MIA Paca-2, HCT116, HUVAC, CL1-5, Mahlavu, and MDA-MB-231.” for “nm.”

HTB-10 = assay: Cellular ELISA of phage clones; assay type: binding, human
Description: as §1, with “nm. To evaluate the binding activities of the three selected phage clones to various human cancer cell lines, cellular ELISA was performed to detect sixteen types of human cancer cell lines, including A498, HTB-10, B16-F10, SKOV3, PC-3, U2OS, 1112SK, […], SAS, H460, MIA Paca-2, HCT116, HUVAC, CL1-5, Mahlavu, and MDA-MB-231.” for “nm.”

binding by cellular ELISA (B16-F10): highly specific binding
binding activity by FACS (SW620): high binding affinity
binding activity by FACS (COLO205): weak affinity
binding activity by FACS (LS174T): moderate affinity
binding activity by FACS (HT29): high binding affinity
specific binding to alpha enolase protein [3]: confirmed
binding by cellular ELISA (SAS): highly specific binding
binding by cellular ELISA (A498): highly specific binding
binding by cellular ELISA (HTB-10): moderate binding
Sequence: SSMDIVLRAPLM [HCT74]
phage accumulation in tumor mass vs normal organs (phage titer) (HCT116 xenografts): significantly accumulated in the tumor mass
binding by cellular ELISA (HCT116 cells [1]): highly specific binding
cell surface-binding activity by flow cytometry (HCT116 cells [2]): high binding affinity
